Patent US5817818A, “Androstenones” (Glaxo Wellcome Inc., priority 1996, dated 1998)
Like-named read-outs stand apart in the source and are kept apart here.

Legend:
Type in all cases: biochemical
[1] = target: T1, human type 2 5α-reductase (Homo sapiens, UniProt P31213); experiment: Inhibition of human type 2 steroid 5α-reductase (microsomes; testosterone to DHT conversion); settings: 20 min preincubation, pH 6.0, 8 nM testosterone, 20-40 min, 1 mM NADPH; read-out: IC50 Human Type 2 5AR
T1 construct: made in house; host or cells: Sf9 insect cells, recombinant baculovirus; microsomes
T1 sequence (P31213 1-254): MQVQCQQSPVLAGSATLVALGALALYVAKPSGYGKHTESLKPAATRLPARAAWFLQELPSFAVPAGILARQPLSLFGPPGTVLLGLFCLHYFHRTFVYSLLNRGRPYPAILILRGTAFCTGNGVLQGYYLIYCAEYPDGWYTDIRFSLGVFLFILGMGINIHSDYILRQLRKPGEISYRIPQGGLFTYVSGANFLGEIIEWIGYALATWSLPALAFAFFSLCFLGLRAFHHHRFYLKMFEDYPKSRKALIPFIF
Experimental: (§1) Enzyme activities may be determined using microsomes derived from: 1) prostate tissue from benign prostatic hyperplasia (BPH) patients; 2) recombinant baculovirus infected SF9 cells that express human type 1 5α-reductase; or 3) recombinant baculovirus infected SF9 cells that express human type 2 5α-reductase. Microsomes were prepared by homogenization of the tissue or cells, followed by differential centrifugation of the homogenate. Microsome extracts were incubated with varying concentrations of [1,2,6,7-^3 H]-testosterone, 1 mM NADPH, and varying amounts of the compounds of formula (I,) i.e. a test compound, in buffer containing a NADPH regenerating system capable of maintaining NADPH concentrations for a period of time within the range 0.5-240 minutes. Corresponding incubations were carried out with no test compound as a control study.
(§2) For type 1 IC50 measurements, assay components except testosterone were preincubated for 10 minutes at pH 7.0, and following the addition of 100 nM testosterone the assays were allowed to proceed for 10-120 minutes. For type 2 IC50 measurements, assay components except testosterone were preincubated for 20 minutes at pH 6.0, and following the addition of 8 nM testosterone the assays were allowed to proceed for 20-40 minutes. The percentage of conversion of testosterone to DHT in the presence of test compounds compared to the corresponding conversion in the control study was estimated using high performance liquid chromatography (HPLC) with radiochemical detection.

[2] = target: T2, Human Adrenal 3BHSD (Homo sapiens, UniProt P26439); experiment: Inhibition of human adrenal 3β-hydroxy-Δ^5-steroid dehydrogenase/3-keto-Δ^5-steroid isomerase (3BHSD) (microsomes; DHEA to androstenedione conversion); settings: 1 mM NAD+, pH 7.5, 1 to 60 minutes
T2 construct: microsomes derived from human adrenal tissues; from tissue; host or cells: human adrenal tissue, microsomes
T2 sequence (P26439 1-372): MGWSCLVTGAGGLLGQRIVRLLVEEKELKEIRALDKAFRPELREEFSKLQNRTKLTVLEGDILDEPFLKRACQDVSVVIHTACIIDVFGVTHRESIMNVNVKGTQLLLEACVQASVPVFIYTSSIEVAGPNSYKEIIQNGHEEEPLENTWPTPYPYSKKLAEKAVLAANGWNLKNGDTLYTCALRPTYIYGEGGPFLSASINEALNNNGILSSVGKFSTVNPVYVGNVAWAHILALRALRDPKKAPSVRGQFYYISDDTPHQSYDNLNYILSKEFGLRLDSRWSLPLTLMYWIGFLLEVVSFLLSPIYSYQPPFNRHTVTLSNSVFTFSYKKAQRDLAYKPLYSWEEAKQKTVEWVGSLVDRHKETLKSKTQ
Experimental: Enzyme activities are measured using microsomes derived from human adrenal tissues. Microsomes were prepared by homogenization of the tissue followed by differential centrifugation of the homogenate. Microsome extracts were incubated with varying concentrations of dehydroepiandrosterone (DHEA), 1 mM NAD+, and varying amounts of the compounds of Formula (I), i.e. a test compound, in pH 7.5 buffer for a period of time within the range of 1 to 60 minutes. Corresponding incubations were carried out with no test compound as a control study. The percentage of conversion of DHEA to androstenedione in the presence of test compounds compared to the corresponding conversion in the control study was estimated using HPLC with radiochemical detection.

[3] = target: T3, human type 1 5α-reductase (Homo sapiens, UniProt P18405); experiment: Inhibition of human type 1 steroid 5α-reductase (microsomes; testosterone to DHT conversion)
T3 construct: made in house; host or cells: Sf9 insect cells, recombinant baculovirus; microsomes
T3 sequence (P18405 1-259): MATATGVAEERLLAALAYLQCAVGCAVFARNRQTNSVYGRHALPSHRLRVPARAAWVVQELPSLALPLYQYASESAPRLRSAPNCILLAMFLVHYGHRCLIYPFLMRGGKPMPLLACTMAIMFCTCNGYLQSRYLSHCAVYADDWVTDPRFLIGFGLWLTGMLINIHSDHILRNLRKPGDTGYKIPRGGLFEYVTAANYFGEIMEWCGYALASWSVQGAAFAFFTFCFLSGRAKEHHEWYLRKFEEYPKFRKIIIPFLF
Experimental: as §1, §2

[4] = 10 min preincubation, pH 7.0, 100 nM testosterone, 10-120 min, 1 mM NADPH, read-out: IC50 Human Type 1 5AR

C[C@]12CCC(=O)N[C@@H]1CC[C@@H]1[C@@H]2CC[C@]2(C)[C@@H](C(=O)NC3(c4ccc(Cl)cc4)CCCC3)CC[C@@H]12 [Compound 1, 17β-N-1-(4-Chlorophenyl)cyclopentylcarbamoyl-4-aza-5α-androstan-3-one] showed an IC50 [1] of less than 1 nM, a Ki [2] greater than 1000 nM and an IC50 [3, 4] of 1 to 10 nM.

In the case of CN1C(=O)CC[C@]2(C)[C@H]3CC[C@]4(C)[C@@H](C(=O)NC5(c6ccc(Cl)cc6)CCCC5)CC[C@H]4[C@@H]3CC[C@@H]12 [Compound 2, 17β-N-1-(4-Chlorophenyl)cyclopentylcarbamoyl-4-methyl-4-aza-5α-androstan-3-one], the IC50 [1] is reported as less than 1 nM, the Ki [2] is reported as 10 to 10000 nM and the IC50 [3, 4] is reported as less than 1 nM.

With C[C@]12C=CC(=O)N[C@@H]1CC[C@@H]1[C@@H]2CC[C@]2(C)[C@@H](C(=O)NC3(c4ccc(Cl)cc4)CCCC3)CC[C@@H]12 [Compound 3, 17β-N-1-(4-chlorophenyl)cyclopentylcarbamoyl-4-aza-5α-androst-1-en-3-one] the IC50 [1] was less than 1 nM, the Ki [2] was greater than 1000 nM and the IC50 [3] was less than 1 nM.

In the case of CC(C)(C)c1ccc(C2(NC(=O)[C@H]3CC[C@H]4[C@@H]5CC[C@H]6NC(=O)C=C[C@]6(C)[C@H]5CC[C@]34C)CCCC2)cc1 [Compound 4, 17β-N-1-(4-t-Butylphenyl)cyclopentylcarbamoyl-4-aza-5α-androst-1-en-3-one], the IC50 [1] is reported as less than 1 nM, the Ki [2] is reported as greater than 1000 nM and the IC50 [3, 4] is reported as 1 to 10 nM.

For CC(C)(C)c1ccc(C2(NC(=O)[C@H]3CC[C@H]4[C@@H]5CC[C@H]6NC(=O)C=C[C@]6(C)[C@H]5CC[C@]34C)CCCCC2)cc1 [Compound 5, 17β-N-1-(4-t-Butylphenyl)cyclohexylcarbamoyl-4-aza-5α-androst-1-en-3-one], the IC50 [1] was less than 1 nM, the Ki [2] was greater than 1000 nM and the IC50 [3, 4] was 1 to 10 nM.

For C[C@]12C=CC(=O)N[C@@H]1CC[C@@H]1[C@@H]2CC[C@]2(C)[C@@H](C(=O)NC3(c4ccc(Cl)cc4)CCCCC3)CC[C@@H]12 [Compound 6, 17β-N-1-(4-Chlorophenyl)cyclohexylcarbamoyl-4-aza-5α-androst-1-en-3-one], the IC50 [1] was less than 1 nM, the Ki [2] was greater than 1000 nM and the IC50 [3, 4] was 1 to 10 nM.

C[C@]12C=CC(=O)N[C@@H]1CC[C@@H]1[C@@H]2CC[C@]2(C)[C@@H](C(=O)NC3(c4ccc(C(F)(F)F)cc4)CCCC3)CC[C@@H]12 [Compound 7, 17β-N-1-(4-Trifluoromethylphenyl)cyclopentylcarbamoyl-4-aza-5α-androst-1-en-3-one] gave an IC50 [1] of less than 1 nM, a Ki [2] greater than 1000 nM and an IC50 [3, 4] of 1 to 10 nM.

In the case of COc1ccc(C2(NC(=O)[C@H]3CC[C@H]4[C@@H]5CC[C@H]6NC(=O)C=C[C@]6(C)[C@H]5CC[C@]34C)CCCC2)cc1 [Compound 8, 17β-N-1-(4-Methoxyphenyl)cyclopentylcarbamoyl-4-aza-5α-androst-1-en-3-one], the IC50 [1] is reported as less than 1 nM, the Ki [2] is reported as greater than 1000 nM and the IC50 [3, 4] is reported as 1 to 10 nM.

For C[C@]12C=CC(=O)N[C@@H]1CC[C@@H]1[C@@H]2CC[C@]2(C)[C@@H](C(=O)NC3(c4ccc(F)cc4)CCCC3)CC[C@@H]12 [Compound 9, 17β-N-1-(4-Fluorophenyl)cyclopentylcarbamoyl-4-aza-5α-androst-1-en-3-one], the IC50 [1] was less than 1 nM, the Ki [2] was greater than 1000 nM and the IC50 [3, 4] was 1 to 10 nM.

In the case of C[C@]12C=CC(=O)N[C@@H]1CC[C@@H]1[C@@H]2CC[C@]2(C)[C@@H](C(=O)NC3(c4ccc(F)cc4)CCCCC3)CC[C@@H]12 [Compound 10, 17β-N-1-(4-Fluorophenyl)cyclohexylcarbamoyl-4-aza-5α-androst-1-en-3-one], the IC50 [1] is reported as less than 1 nM, the Ki [2] is reported as greater than 1000 nM and the IC50 [3, 4] is reported as 1 to 10 nM.

COc1ccc(C2(NC(=O)[C@H]3CC[C@H]4[C@@H]5CC[C@H]6NC(=O)C=C[C@]6(C)[C@H]5CC[C@]34C)CCCCC2)cc1 [Compound 11, 17β-N-1-(4-Methoxyphenyl)cyclohexylcarbamoyl-4-aza-5α-androst-1-en-3-one] was tested, and the IC50 [1] was less than 1 nM, the Ki [2] was greater than 1000 nM and the IC50 [3, 4] was 1 to 10 nM.

C[C@]12C=CC(=O)N[C@@H]1CC[C@@H]1[C@@H]2CC[C@]2(C)[C@@H](C(=O)NC3(c4ccc5c(c4)OCO5)CCCCC3)CC[C@@H]12 [Compound 12, 17β-N-1-(3,4-Methylenedioxyphenyl)cyclohexylcarbamoyl-4-aza-5α-androst-1-en-3-one] gave an IC50 [1] of less than 1 nM, a Ki [2] of 10 to 10000 nM and an IC50 [3, 4] of 10 to 10000 nM.

Molecule CC(C)(C)c1ccc(C2(NC(=O)[C@H]3CC[C@H]4[C@@H]5CC[C@H]6NC(=O)C=C[C@]6(C)[C@H]5CC[C@]34C)CCCCCC2)cc1 [Compound 13, 17β-N-1-(4-t-Butylphenyl)cycloheptylcarbamoyl-4-aza-5α-androst-1-en-3-one] has an IC50 [1] of less than 1 nM, a Ki [2] greater than 1000 nM and an IC50 [3, 4] of 1 to 10 nM.

For CC(C)(C)c1ccc(C2(NC(=O)[C@H]3CC[C@H]4[C@@H]5CC[C@H]6NC(=O)C=C[C@]6(C)[C@H]5CC[C@]34C)CCOCC2)cc1 [Compound 14, 17β-N-4-(4-t-Butylphenyl)tetrahydropyranylcarbamoyl-4-aza-5α-androst-1-en-3-one], the IC50 [1] was less than 1 nM, the Ki [2] was greater than 1000 nM and the IC50 [3, 4] was 1 to 10 nM.

Work on C[C@]12C=CC(=O)N[C@@H]1CC[C@@H]1[C@@H]2CC[C@]2(C)[C@@H](C(=O)NC3(c4ccc(Cl)cc4Cl)CC3)CC[C@@H]12 [Compound 15, 17β-N-1-(2,4-Dichlorophenyl)cyclopropylcarbamoyl-4-aza-5α-androst-1-en-3-one] yielded an IC50 [1] of less than 1 nM, a Ki [2] greater than 1000 nM and an IC50 [3, 4] of 1 to 10 nM.

In the case of CCC1(CC)CC1(NC(=O)[C@H]1CC[C@H]2[C@@H]3CC[C@H]4NC(=O)C=C[C@]4(C)[C@H]3CC[C@]12C)c1ccc(C(F)(F)F)cc1 (stereo partly drawn) [Compound 16, 17β-N-1-(4-Trifluoromethylphenyl)-2,2-diethylcyclopropylcarbamoyl-4-aza-5α-androst-1-en-3-one], the IC50 [1] is reported as less than 1 nM, the Ki [2] is reported as greater than 1000 nM and the IC50 [3, 4] is reported as 1 to 10 nM.

Molecule CC1(C)CCC(NC(=O)[C@H]2CC[C@H]3[C@@H]4CC[C@H]5NC(=O)C=C[C@]5(C)[C@H]4CC[C@]23C)(c2ccc(C(C)(C)C)cc2)CC1 [Compound 17, 17β-N-1-(4-t-Butylphenyl)-4,4-dimethylcyclohexylcarbamoyl-4-aza-5α-androst-1-en-3-one] has an IC50 [1] of less than 1 nM, a Ki [2] greater than 1000 nM and an IC50 [3, 4] of less than 1 nM.

Work on CC(C)(C)c1ccc(C2(NC(=O)[C@H]3CC[C@H]4[C@@H]5CC[C@H]6NC(=O)C=C[C@]6(C)[C@H]5CC[C@]34C)CCC(C(C)(C)C)CC2)cc1 (stereo partly drawn) [Compound 18, 17β-N-1-(4-t-Butylphenyl)-4-t-Butylcyclohexylcarbamoyl-4-aza-5α-androst-1-en-3-one] yielded an IC50 [1] of less than 1 nM, a Ki [2] greater than 1000 nM and an IC50 [3, 4] of 1 to 10 nM.

C[C@]12C=CC(=O)N[C@@H]1CC[C@@H]1[C@@H]2CC[C@]2(C)[C@@H](C(=O)NC3(c4cccc(C(F)(F)F)c4)CCCC3)CC[C@@H]12 [Compound 19, 17β-N-1-(3-Trifluoromethylphenyl)cyclopentylcarbamoyl-4-aza-5α-androst-1-en-3-one] showed an IC50 [1] of less than 1 nM, a Ki [2] greater than 1000 nM and an IC50 [3, 4] of 1 to 10 nM.

In the case of CC(C)(C)c1ccc(C2(NC(=O)[C@H]3CC[C@H]4[C@@H]5CC[C@H]6NC(=O)C=C[C@]6(C)[C@H]5CC[C@]34C)CCSCC2)cc1 [Compound 20, 17β-N-4-(4-t-Butylphenyl)tetrahydrothiopyranylcarbamoyl-4-aza-5α-androst-1-en-3-one], the IC50 [1] is reported as less than 1 nM, the Ki [2] is reported as greater than 1000 nM and the IC50 [3, 4] is reported as less than 1 nM.
